According to patent publication US20100009950A1, “SUBSTITUTED ETHANOLAMINES” (AUSPEX PHARMACEUTICALS, INC., priority 2008, published 2010):

Details: mark in second data column (bin 0%-50%); 1 mg per mL liver microsome protein, 1 μM, 37° C.; vs non-isotopically enriched compound

Substance: N-(2-Hydroxy-2-(4-hydroxy-3-(hydroxymethyl)phenyl)ethyl)-6-(4-d3-phenyl-d8-butoxy)hexan-1-d2-aminium 1-hydroxy-2-naphthoate [Example 5]
- % increase of HLM degradation half-life: + (0%-50%)
